US7241785B2, “Five-membered heterocyclic alkanoic acid derivative” (Takeda Pharmaceutical Company Limited, priority 2001, dated 2007)

Target: T1, PPARγ-RXRα heterodimer (Homo sapiens, UniProt P37231)
T1 construct: expressed in transfected cells
T1 sequence (P37231 1-477 isoform P37231-2): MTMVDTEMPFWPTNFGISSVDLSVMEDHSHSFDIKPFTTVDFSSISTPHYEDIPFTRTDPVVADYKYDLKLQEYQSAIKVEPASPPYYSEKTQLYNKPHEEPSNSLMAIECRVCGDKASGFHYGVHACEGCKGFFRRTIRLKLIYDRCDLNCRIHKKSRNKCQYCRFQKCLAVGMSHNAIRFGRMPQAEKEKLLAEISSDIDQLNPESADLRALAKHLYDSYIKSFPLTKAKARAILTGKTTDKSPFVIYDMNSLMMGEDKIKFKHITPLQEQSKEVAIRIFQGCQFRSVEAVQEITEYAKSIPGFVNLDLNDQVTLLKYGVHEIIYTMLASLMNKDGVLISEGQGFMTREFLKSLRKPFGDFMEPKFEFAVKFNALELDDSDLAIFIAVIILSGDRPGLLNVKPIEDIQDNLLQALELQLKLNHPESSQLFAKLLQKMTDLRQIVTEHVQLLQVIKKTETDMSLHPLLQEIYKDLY
T1 sequence (P19793 1-462 partner): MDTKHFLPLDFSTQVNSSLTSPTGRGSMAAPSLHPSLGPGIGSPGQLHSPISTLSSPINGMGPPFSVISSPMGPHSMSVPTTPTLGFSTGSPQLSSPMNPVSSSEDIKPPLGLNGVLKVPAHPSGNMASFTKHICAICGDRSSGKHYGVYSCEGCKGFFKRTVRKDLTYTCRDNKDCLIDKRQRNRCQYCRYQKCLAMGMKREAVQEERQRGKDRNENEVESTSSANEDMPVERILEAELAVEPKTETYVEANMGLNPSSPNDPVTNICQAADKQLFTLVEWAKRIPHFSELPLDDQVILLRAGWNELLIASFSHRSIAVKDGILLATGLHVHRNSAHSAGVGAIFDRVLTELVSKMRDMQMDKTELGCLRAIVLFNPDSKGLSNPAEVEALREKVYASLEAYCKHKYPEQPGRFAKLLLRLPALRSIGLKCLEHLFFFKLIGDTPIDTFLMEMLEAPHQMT
Experiment: PPARγ-RXRα heterodimer ligand activity (luciferase reporter, PPARγ:RXRα:4ERPP/CHO-K1 cells)
Format: cell-based
Details: concentration for 50% of maximum fold induction of luciferase, 48 hrs
Experimental: (PPARγ-RXRα Heterodimer Ligand Activity)
PPARγ:RXRα:4ERPP/CHO-K1 cells obtained in Reference Example 8a were cultured in HAM F12 medium (manufactured by NISSUI SEIYAKU) containing 10% fetal bovine serum [manufactured by Life Technologies, Inc., USA], seeded in a 96-well white plate [manufactured by Corning Coster Corporation, USA] at the density of 2×10^4 cells/well and cultured in a CO2 gas incubator at 37° C. overnight.
After washing the 96-well white plate with PBS (Phosphate-buffered saline), 90 μl of HAM F12 medium containing 0.1% fatty acid-free bovine serum albumin (BSA) and 10 μl of test compound were added, and the cells were cultured in a CO2 gas incubator at 37° C. for 48 hrs. The medium was removed and 40 μl of PicaGene 7.5 (manufactured by Wako Pure Chemical Industries, Ltd.) was added. After stirring, the luciferase activity was determined using Lumistar [manufactured by BMG Labtechnologies GmbH, Germany].
The fold induction was calculated from the luciferase activity of each test compound when the luciferase activity of the non-treatment group is taken as 1. The values of the test compound concentration and the fold induction were analyzed using PRISM 2.01 (produced by GraphPad Software Inc. USA) to calculate the EC50 values, the effective concentration of a test compound for 50% of the maximum fold induction.
Introduction of Human PPARγ- and RXRα-Expression Plasmid and Reporter Plasmid into CHO-K1 Cell and Establishment of Expressed Cell
After a CHO-K1 cell cultured in a tissue culture flask (750 ml) (produced by Corning Costar Corporation, USA) containing HAM F12 medium (produced by NISSUI SEIYAKU) supplemented with 10% fetal bovine serum (produced by Life Technologies, Inc., USA) was scraped by treating with 0.5 g/L trypsin-0.2 g/L EDTA (ethylenediaminetetraacetic acid) (produced by Life Technologies, Inc., USA), the cell was washed with PBS (phosphate-buffered saline) (produced by Life Technologies, Inc., USA), centrifuged (1000 rpm, 5 minutes), and then suspended in PBS. Subsequently, a DNA was introduced into the cell under the conditions shown below using GENE PULSER (produced by Bio-Rad Laboratories, USA).
Namely, to a cuvette having a 0.4 cm gap, added were 8×10^6 cells and 10 μg of plasmid pVgRXR2-hPPARγ obtained in Reference Example 7a and 10 μg of reporter plasmid pGL3-4ERPP-TK neo obtained in Reference Example 4a, which was subjected to electroporation at the voltage of 0.25 kV under the capacitance of 960 μF. Subsequently, the cell was transferred into a HAM F12 medium containing 10% fetal bovine serum and cultured for 24 hours and then the cell was scraped again and centrifuged, and then suspended in HAM F12 medium containing 10% fetal bovine serum supplemented with 500 μg/ml of GENETICIN, (produced by Life Technologies, Inc., USA) and 250 μg /ml of ZEOCIN (produced by Invitrogen, USA). The obtained suspension was diluted to the density of 10^4 cells/ml and inoculated to a 96-well plate (produced by Corning Costar Corporation, USA), which was cultured in a CO2 gas incubator at 37° C., whereby obtaining a GENETICIN- and ZEOCIN-resistant transformant.
Subsequently, after the transformant cell line thus obtained was cultured in a 24-well plate (produced by Corning Costar Corporation, USA), selected was a cell line in which the luciferase was expressed and induced, i.e., PPARγ:RXRα:4ERPP/CHO-K1 cell by the addition of 10 μM pioglitazone hydrochloride.

EC50: 9.9 nM
SMILES: Cc1oc(-c2ccccc2)nc1COc1ccc(Sc2nc(-c3ccccc3)c(CCC(=O)O)o2)cc1 [Example 10, 3-[2-[4-(5-methyl-2-phenyl-4-oxazolylmethoxy)phenylthio]-4-phenyl-5-oxazolyl]propionic acid]
